Structures are written as SMILES. Counter-ions that a name gives are not always drawn. The source made the active and inactive calls. The rule behind the calls is not given here.

Series [1] has as its system A549. As to the kind of experiment: Cytotoxicity against human A549 cells assessed as inhibition of cell growth after 48 hrs by sulforhodamine B assay. As to conditions: A549, 48 h. Type of series: functional, cell-based. In general terms: In SRB staining, fixed cells bind dye roughly in proportion to their protein.
A short description of series [2]: Cytotoxicity against human THP1 cells assessed as inhibition of cell growth after 48 hrs by sulforhodamine B assay. Format: functional, cell-based. As to conditions: THP-1, 48 h.
A short description of series [3]: Cytotoxicity against human PC3 cells assessed as inhibition of cell growth after 48 hrs by sulforhodamine B assay. Format: functional, cell-based. The following applies: PC-3, 48 h.
Series [4] in a line: Cytotoxicity against human HCT116 cells assessed as inhibition of cell growth after 48 hrs by sulforhodamine B assay. As to conditions: HCT-116, 48 h. Format: functional, cell-based.
In series [5] the test system is PC-3. Put plainly: Induction of apoptosis in human PC3 cells assessed as cell shrinkage at IC50 incubated for 12 hrs by DAPI staining based confocal microscopy. Format: functional.
In series [6] the test system is PC-3. As to the kind of experiment: Induction of apoptosis in human PC3 cells assessed as cell rounding at IC50 incubated for 12 hrs by DAPI staining based confocal microscopy. Format: functional.
Series [7] has as its system PC-3. As to the kind of experiment: Induction of apoptosis in human PC3 cells assessed as plasma membrane blebbing at IC50 incubated for 12 hrs by DAPI staining based confocal microscopy. Type of series: functional, cell-based.
Series [8] relates to PC-3. Put plainly: Induction of apoptosis in human PC3 cells assessed as smoothening of cell surface at IC50 incubated for 6 hrs by scanning electron microscopy. Type of series: functional, cell-based.
Series [9] has as its system PC-3. Put plainly: Induction of apoptosis in human PC3 cells assessed as plasma membrane blebbing at IC50 incubated for 6 hrs by scanning electron microscopy. Format: functional, cell-based.
Series [10] relates to PC-3. As to the kind of experiment: Induction of apoptosis in human PC3 cells assessed as smoothening of cell surface at IC50 incubated for 12 hrs by scanning electron microscopy. Format: functional, cell-based.
In series [11] the test system is PC-3. Put plainly: Induction of apoptosis in human PC3 cells assessed as plasma membrane blebbing at IC50 incubated for 12 hrs by scanning electron microscopy. Type of series: functional, cell-based.
The subject of series [12] is PC-3. Put plainly: Induction of apoptosis in human PC3 cells assessed as decrease in cell size at IC50 incubated for 12 hrs by scanning electron microscopy. Type of series: functional, cell-based.
The nature of series [13]: Cell cycle arrest in human PC3 cells assessed as accumulation at subG1 phase at 5 uM after 12 hrs by propidium iodide staining based flow cytometry (reference value: 29.6%). Type of series: functional. As to conditions: PC-3.
Series [14] in a line: Cell cycle arrest in human PC3 cells assessed as accumulation at subG1 phase at 10 uM after 12 hrs by propidium iodide staining based flow cytometry (reference value: 29.6%). Format: functional. The following applies: PC-3. Background: Flow cytometry measures light scatter and fluorescence of single cells or particles in a stream.
Series [15] can be described thus: Cell cycle arrest in human PC3 cells assessed as accumulation at subG1 phase at 15 uM after 12 hrs by propidium iodide staining based flow cytometry (reference value: 29.6%). Format: functional. The following applies: PC-3.
The subject of series [16] is PC-3. As to the kind of experiment: Induction of apoptosis in human PC3 cells assessed as mitochondrial membrane potential depolarization after 12 hrs using rhodamine 123 by spectrofluorimetric analysis. Format: functional, cell-based.
Series [17] relates to PC-3. As to the kind of experiment: Induction of apoptosis in human PC3 cells assessed as increase in intracellular ROS level after 24 hrs using DCFH-DA by spectrofluorimetric analysis. Type of series: functional, cell-based.
A short description of series [18]: Induction of apoptosis in CHO cells assessed as viable cells at 10 uM after 24 hrs by Annexin V-FITC/propidium iodide staining based flow cytometry (reference value: 91.8%). Format: cell-based, Cricetulus griseus. The following applies: chinese hamster, read-out: Activity.
The test system of series [19] is CHO. Put plainly: Induction of apoptosis in CHO cells assessed as early apoptotic cells at 10 uM after 24 hrs by Annexin V-FITC/propidium iodide staining based flow cytometry (reference value: 3%). Type of series: cell-based, Cricetulus griseus. As to conditions: chinese hamster.
Series [20] has as its system CHO. As to the kind of experiment: Induction of apoptosis in CHO cells assessed as late apoptotic cells at 10 uM after 24 hrs by Annexin V-FITC/propidium iodide staining based flow cytometry (reference value: 1%). Type of series: cell-based, Cricetulus griseus. The following applies: chinese hamster.
In series [21] the test system is CHO. As to the kind of experiment: Induction of apoptosis in CHO cells assessed as necrotic cells at 10 uM after 24 hrs by Annexin V-FITC/propidium iodide staining based flow cytometry (reference value: 4.3%). As to conditions: chinese hamster. Type of series: cell-based, Cricetulus griseus.
Series [22] in a line: Cell cycle arrest in human PC3 cells assessed as accumulation at subG1 phase at 2 uM after 12 hrs by propidium iodide staining based flow cytometry (reference value: 29.6%). The following applies: PC-3. Type of series: functional.
A short description of series [23]: Cell cycle arrest in human PC3 cells assessed as accumulation at subG1 phase after 12 hrs by propidium iodide staining based flow cytometry. Type of series: functional. As to conditions: PC-3.

Regarding `COc1ccccc1[C@H]1OC(=O)[C@@H]2C=C3C(C)(C)CCC[C@]3(C)[C@H]12`, the IC50 in series [1] was 18 µM; in series [2], above 50 µM; in [3] it was 10 µM; in [4] it was 15 µM. Also, the outcome in series [5], in series [6], in series [7], in series [8], in series [9] and in series [10] was Active. Moreover, the outcome in series [11] and in [12] was Active. Further, the Activity in [13] is 59.8%; in series [14], 68.1%; in series [15] it was 77.5%; in [16], “Dose-dependent effect”; in [17], “Dose-dependent effect”; in series [19], 36.2%. The Activity in series [20] was 6.1%; in [21] it was 0.8%. Besides, the viability at 24 h, 10 µM in series [18] came to 56.8%.

As to `CC1(C)CCC[C@@]2(C)C1=C[C@H]1C(=O)[C@H](c3ccccc3Br)[C@H]12`, the IC50 in series [1] is 28 µM; in [2], 10 µM; in series [3], above 50 µM; in [4] it was 19 µM.

Consider `O=c1[nH]cc(F)c(=O)[nH]1` [FLUOROURACIL], for which, in series [1], the concentration for half-maximal inhibition (IC50) was found to be 0.5 µM.

As for `Cc1ccccc1[C@H]1C(=O)[C@@H]2C=C3C(C)(C)CCC[C@]3(C)[C@H]12`, the IC50 in [1] was 28 µM; in series [2], above 50 µM; in series [3], above 50 µM; in [4], above 50 µM.

As for `CC1(C)CCC[C@@]2(C)C1=C[C@H]1C(=O)[C@H](c3ccccc3Cl)[C@H]12`, the IC50 in series [1] is 25 µM; in series [2] it was above 50 µM; in series [3], above 50 µM; in [4] it was above 50 µM.

Take `CC1(C)CCC[C@@]2(C)C1=C[C@H]1C(=O)[C@H](c3ccccc3F)[C@H]12`: the 50% inhibitory concentration (IC50) in series [1] was 36 µM; in [2] it was 18 µM; in series [3] it was above 50 µM; in [4], 17 µM.

With `CC1(C)CCC[C@@]2(C)C1=C[C@H]1C(=O)O[C@H](c3ccccc3F)[C@H]12`, the half-inhibitory concentration (IC50) in [1], in series [2], in series [3] and in series [4] was above 50 µM each time.

As to `CC[C@@]1(O)C(=O)OCc2c1cc1n(c2=O)Cc2cc3ccccc3nc2-1` [CAMPTOTHECIN], the Activity is 60.9% in series [22], 21.6% in [19], 2.4% in series [20] and 1.2% in series [21]. In addition, the viability at 24 h, 10 µM in [18] was found to be 74.8%.

Consider `CC1(C)CCC[C@@]2(C)C1=C[C@H]1C(=O)O[C@H](c3ccccc3Cl)[C@H]12`, for which the IC50 in series [1] is 40 µM; in series [2], above 50 µM; in series [3] it was above 50 µM; in series [4] it was above 50 µM.

Regarding `Cc1ccccc1[C@H]1OC(=O)[C@@H]2C=C3C(C)(C)CCC[C@]3(C)[C@H]12`, the IC50 was 23 µM in series [1], above 50 µM in [2], 21 µM in [3] and above 50 µM in [4].

As to `CC1(C)CCC[C@@]2(C)C1=C[C@H]1C(=O)O[C@H](c3ccccc3Br)[C@H]12`, the IC50 in series [1], in series [2], in series [3] and in series [4] was above 50 µM each time.

Regarding `CO[C@@]12[C@H](COC(N)=O)C3=C(C(=O)C(C)=C(N)C3=O)N1C[C@@H]1N[C@@H]12` [MITOMYCIN], the half-inhibitory concentration (IC50) was 0.5 µM in [2] and 0.2 µM in series [3].

For the molecule `COc1cccc2c1C(=O)c1c(O)c3c(c(O)c1C2=O)C[C@@](O)(C(=O)CO)C[C@@H]3O[C@H]1C[C@H](N)[C@H](O)[C@H](C)O1` [DOXORUBICIN HYDROCHLORIDE], the IC50 in series [4] stood at 0.01 µM.

`COc1ccccc1[C@H]1C(=O)[C@@H]2C=C3C(C)(C)CCC[C@]3(C)[C@H]12`: the 50% inhibitory concentration (IC50) was determined as 10 µM in series [1], 10 µM in [2], 8 µM in [3] and 12 µM in series [4]. The result in series [5], in series [6], in series [7], in [8], in series [9] and in series [10] was Active. For the same molecule, the outcome in [11] and in series [12] was Active. Moreover, the Activity in series [13] is 45.2%; in [14] it was 56.6%; in series [15] it was 74.1%; in series [23] it was “Dose-dependent effect”; in [16] it was “Dose-dependent effect”; in series [17] it was “Dose-dependent effect”. For the same molecule, the values for the Activity in series [19], in series [20] and in [21] were 37.6%, 6.9% and 1.1%, respectively. In series [18], the viability at 24 h, 10 µM was determined as 54.5%.

For the molecule `CC1(C)CCC[C@@]2(C)C1=C[C@H]1C(=O)[C@H](c3ccc(Cl)c(Cl)c3)[C@H]12`, the half-inhibitory concentration (IC50) in series [1] was above 50 µM; in series [2], above 50 µM; in [3] it was above 50 µM; in [4] it was 38 µM.

As for `CC1(C)CCC[C@@]2(C)C1=C[C@H]1C(=O)O[C@H](c3ccc(Cl)c(Cl)c3)[C@H]12`, the IC50 in series [1] is above 50 µM; in series [2] it was above 50 µM; in series [3] it was 12 µM; in series [4], 20 µM.

As usually defined, the IC50 is the concentration needed to halve the response being measured.
